Values joined by “and” are separate entries in the source; they are usually repeats but may differ in a detail not shown here. Identical values can stand only once. Like-named read-outs stand apart in the source and are kept apart here.
What was measured:
CB2 receptor = target: T1, CB2 receptor (Homo sapiens, UniProt P34972); assay: CB2 binding procedure: displacement of [3H]CP-55,940 from membranes of transfected CHO cells; details: for CB1/CB2 (ratio of Ki): CB1 Ki divided by CB2 Ki; for Ki: [3H]CP-55,940, transfected CHO cell membranes
T1 construct: expressed in transfected cells; host or cells: CHO cells, G418-selected transfected line
Experimental: Membranes for CB2 binding were obtained from CHO cells. The transfected cell line was maintained in Dublecco's Modified Eagle Medium (Gibco BRL, Grand Island, N.Y.) with 10% fetal clone II (HyClone Laboratories, Inc., Logan, Utah) plus 0.3 to 0.5 mg/ml G418 (to maintain selective pressure) under 5% CO2 at 37% C. Cells were harvested with 1 mM EDTA in phosphate-buffered saline and were centrifuged at 1000×g for 5 min at 4% C. The supernatant was saved and the P1 pellet was resuspended in centrifugation buffer. Homogenization and centrifugation were repeated twice and the combined supernatant fractions were centrifuged at 40,000×g for 30 min at 4% C. The P2 pellet was resuspended in centrifugation buffer 2 (Tris HCl, 50 mM; EDTA, 1 mM; and MgCl2, 3 mM, pH 7.4) to a protein concentration of approximately 2 mg/ml. Protein concentrations were determined by the method of Bradford (1976) using Bio-Rad Protein Assay (Bio-Rad, Richmond, Calif.) and BSA standards (fatty acid free, Sigma Chemical Co., St. Louis, Mo.). The membrane preparation was divided into amounts convenient for binding assays and frozen rapidly in dry ice and stored at −80% C.
Binding was initiated by the addition of 50 μg of quickly thawed P2 membranes to test tubes containing [^3H]CP-55,940 (final reaction concentration 0.5 nM), an appropriate concentration of unlabeled CP-55,940 or test drug, and sufficient quantity of assay buffer (50 mM Tris-HCl, 1 mM EDTA, 3 mM MgCl2, 5 mg/ml bovine serum albumin, pH 7.4) to bring the total incubation volume to 0.5 ml. Concentration of [^3H]CP-55,940 in saturation studies ranged from 50 to 10,000 pM. Nonspecific binding was determined by the addition of 1 μM unlabeled CP-55,940. CP-55,940 and all cannabinoid analogs were prepared by suspension in assay buffer from a 1 mg/ml ethanolic stock without evaporation of the ethanol (final concentration of no more than 0.4%). In competition studies, analog concentrations ranged from 0.1 nM to 10 μM. After incubation at 30% C for 1 hr, binding was terminated by the addition of 2 ml of ice-cold wash buffer (50 mM Tris-HCl and 1 mg/ml BSA) and vacuum filtration through pre-treated filters in a 12-well sampling manifold (Millipore, Bedford, Mass.). Reaction vessels were washed once with 2 ml of ice-cold wash buffer. Filters were placed into 7-ml plastic scintillation vials (RPI Corp., Mount Prospect, Ill.) with 4 ml of Budget-Solve (RPI Corp.). After shaking for 30 min, the radioactivity present was determined by liquid scintillation spectrometry. Three reaction vessels were used for each drug concentration in each assay. The results represent the combined data of three independent experiments. All assays were performed in siliconized test tubes, which were prepared by air drying (12 hr) inverted borosilicate tubes after two rinses with a 0.1% solution of AquaSil (Pierce, Rockford, Ill.). The GF/C glass-fiber filters (2.4 cm, Baxter, McGaw Park, Ill.) were pre-treated in a 0.1% solution of pH 7.4 polyethylenimine (Sigma Chemical Co.) for at least 6 hr.
(§1) In addition, multiple linear regression was used to calculate the overall degree of relationship between CB1 binding affinity and potency in the mouse measures for all active cannabinoids. […] Ki values for CB1 and CB2 binding were obtained from Scatchard displacement analysis as determined via EBDA program of the KELL software package (Biosoft, Milltown, N.J.).

CB1 receptor = CB1 receptor (Rattus norvegicus, UniProt P20272); assay: CB1 binding procedure: displacement of [3H]CP 55,940 from rat whole-brain P2 membranes; parameters: whole brain was homogenized and centrifuged; from tissue; host or cells: rat whole brain, P2 membrane fraction; details: for Ki: [3H]CP 55,940, rat brain membranes; for fold decrease in CB1 affinity: relative to the comparator analog
Experimental: (§2) Male ICR mice (25–32 g), obtained from Harlan (Dublin, Va.), were housed in groups of five. All animals were kept in a temperature-controlled (20–22° C.) environment with a 12-hour light-dark cycle (lights on at 7 a.m.). Separate mice were used for testing each drug dose in the in vivo behavioral procedures. Brain tissue for binding studies was obtained from male Sprague-Dawley rats (150–200 g) purchased from Harlan Laboratories (Dublin, Va.).
The methods used for tissue preparation and binding have been described previously (Compton et al., 1993) and are similar to those described by Devane et al. (1988). All assays, as described briefly below, were performed in triplicate, and the results represent the combined data from three to six individual experiments.
Following decapitation and rapid removal of the brain, whole brain was homogenized and centrifuged. The resulting pellet was termed P1. The supernatant was saved and combined with the two subsequent supernatants obtained from washing of the P1 pellet. The combined supernatant fractions were centrifuged, resulting in the P2 pellet. After further incubation and centrifuging, this pellet was resuspended in assay buffer to a protein concentration of approximately 2 mg/ml. The membrane preparation was quickly frozen in a bath solution of dry ice and 2-methylbutane (Sigma Chemical Co., St. Louis, Mo.), then stored at −80° C. for no more than 2 weeks. Prior to performing a binding assay an aliquot of frozen membrane was rapidly thawed and protein values determined by the method of Bradford (1976).
Binding was initiated by the addition of 150 μg of P2 membrane to test tubes containing 1 nM of [^3H] CP 55,940 (79 Ci/mmol) and a sufficient quantity of buffer to bring the total incubation volume to 1 ml. Nonspecific binding was determined by the addition of 1 μM unlabeled CP 55,940. Following incubation at 30° C. for 1 hr, binding was terminated by addition of ice cold buffer and vacuum filtration through pretreated filters in a 12-well sampling manifold (Millipore, Bedford, Mass.). After washing, filters were placed into plastic scintillation vials (Packard, Downer Grove, Ill.) and shaken. The quantity of radioactivity present was determined by liquid scintillation spectrometry.
as §1

Male ICR mice [1] = assay: Suppression of spontaneous activity (SA) in mice; type: in vivo, mouse; details: for SA percent effect at the highest dose: mice, i.v., 30 mg/kg, % inhibition of activity of vehicle group
Experimental: as §2
(§3) Measurement of spontaneous activity in mice occurred in standard activity chambers interfaced with a Digiscan Animal Activity Monitor (Omnitech Electronics, Inc., Columbus, Ohio). A standard tail-flick apparatus and a digital thermometer (Fisher Scientific, Pittsburgh, Pa.) were used to measure antinociception and rectal temperature, respectively
(§4) Resorcinols were synthesized in our labs (Organix, Inc., Woburn, Mass.) according to the procedure specified below and were suspended in a vehicle of absolute ethanol, Emulphor-620 (Rhone-Poulenc, Inc., Princeton, N.J.), and saline in a ratio of 1:1:18. Drugs were administered to the mice intravenously (i.v.) in the tail vein at a volume of 0.1 ml/10 g.
(§5) Prior to testing in the behavioral procedures, mice were acclimated to the experimental setting (ambient temperature 22–24° C.) overnight. Pre-injection control values were determined for rectal temperature and tail-flick latency (in sec). […] Tail-flick latency was measured at 20 min post-injection. Maximum latency of 10 sec was used. Antinociception was calculated as percent of maximum possible effect {% MPE=[(test−control latency)/(10-control)]×100}. Control latencies typically ranged from 1.5 to 4.0 sec. At 30 min post-injection, rectal temperature was measured This value was expressed as the difference between control temperature (before injection) and temperatures following drug administration (° C.). Different mice (n=5–6 per dose) were tested for each dose of each compound. Each mouse was tested in each of the 3 procedures.
(§6) Based on data obtained from numerous previous studies with cannabinoids, maximal cannabinoid effects in each procedure were estimated as follows: 90% inhibition of spontaneous activity, 100% MPE in the tail flick procedure, and −6° C. change in rectal temperature. ED50's were defined as the dose at which half maximal effect occurred. For drugs that produced one or more cannabinoid effect, ED50's were calculated separately using least-squares linear regression on the linear part of the dose-effect curve for each measure in the mouse tetrad, plotted against log10 transformation of the dose. For the purposes of potency comparison, potencies were expressed as μmol/kg.

Male ICR mice [2] = assay: Tail-flick antinociception (TF, % MPE) in mice; type: in vivo, mouse; details: for T.F. % effect at dose: Table 6, @ 30 (mg/kg); for TF percent effect (% MPE) at the highest dose: mice, i.v., 30 mg/kg
Experimental: as §2, §3, §4, §5, §6

Male ICR mice [3] = assay: Change in rectal temperature (RT) in mice; type: in vivo, mouse; details: for R.T. effect at dose: Table 6, @ 30 (mg/kg); for RT effect at the highest dose (change in rectal temperature): mice, i.v., 30 mg/kg
Experimental: as §2, §3, §4, §5, §6

[4] = means ± SEM, read-out: Ki (nM) CB2
[5] = means ± SEM, read-out: Ki (nM) CB1
[6] = relative to the comparator analog

T1 sequence (P34972 whole entry): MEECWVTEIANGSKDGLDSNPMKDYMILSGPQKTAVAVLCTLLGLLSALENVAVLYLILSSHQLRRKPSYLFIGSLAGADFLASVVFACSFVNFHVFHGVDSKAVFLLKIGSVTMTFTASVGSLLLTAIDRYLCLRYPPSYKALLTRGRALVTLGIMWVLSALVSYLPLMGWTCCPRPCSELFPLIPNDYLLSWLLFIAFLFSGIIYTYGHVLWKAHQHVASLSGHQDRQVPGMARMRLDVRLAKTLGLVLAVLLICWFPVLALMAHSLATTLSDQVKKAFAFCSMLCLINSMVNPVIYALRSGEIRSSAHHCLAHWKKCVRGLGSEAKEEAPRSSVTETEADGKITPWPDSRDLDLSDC
Chain of CB1 receptor (P20272 whole entry): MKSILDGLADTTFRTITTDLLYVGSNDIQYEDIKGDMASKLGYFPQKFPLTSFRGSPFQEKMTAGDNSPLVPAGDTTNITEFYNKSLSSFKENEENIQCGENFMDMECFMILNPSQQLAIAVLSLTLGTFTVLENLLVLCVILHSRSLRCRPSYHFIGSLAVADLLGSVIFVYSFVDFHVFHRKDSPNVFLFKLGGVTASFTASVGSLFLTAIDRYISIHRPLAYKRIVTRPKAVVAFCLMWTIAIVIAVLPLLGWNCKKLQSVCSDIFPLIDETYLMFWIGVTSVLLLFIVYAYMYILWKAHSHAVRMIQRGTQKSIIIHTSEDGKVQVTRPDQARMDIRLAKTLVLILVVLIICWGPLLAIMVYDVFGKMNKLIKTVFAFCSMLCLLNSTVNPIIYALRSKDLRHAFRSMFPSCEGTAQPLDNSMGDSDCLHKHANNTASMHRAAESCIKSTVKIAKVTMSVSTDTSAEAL

Compound | CB1/CB2 (ratio of Ki) (CB2 receptor) | Ki (CB2 receptor; [4]) | Ki (CB1 receptor; [5]) | further results
CCCCCCC(C)(C)c1cc(OC)c(C2(O)CCC(=O)CC2)c(OC)c1 [O-2115] | 13 | 346 ± 49 nM | 4570 ± 173 nM | –
C=C(C)[C@@H]1CCC(C)=C[C@H]1c1c(C)cc(O)cc1O (single isomer, unassigned) [O-1602] | – | – | – | S.A % effect at dose, stim. (Male ICR mice [1]; Table 6, stimulation, @ 30 (mg/kg)): 66% stim.; T.F. % effect at dose (Male ICR mice [2]): 0 @ 30%; R.T. effect at dose (Male ICR mice [3]): 0.3 @ 30 °C
CCCCCCC(C)(C)c1cc(O)c(C2CCC(c3ccccc3)CC2)c(O)c1 (stereo not drawn) [O-1663, 2-(4-Phenylcyclohexyl)-5-(1′,1′-dimethylheptyl)-resorcinol] | 16 | – | – | Ki (CB2 receptor; Ki (nM) CB2, means ± SEM): 9 ± 2 nM; fold decrease in CB2 affinity (CB2 receptor; [6]): 2 fold; S.A % effect at dose (Male ICR mice [1]; Table 6, @ 30 (mg/kg)): 32% @ 30; SA percent effect at the highest dose (Male ICR mice [1]): 32%(30); T.F. % effect at dose (Male ICR mice [2]): 7% @ 30; TF percent effect (% MPE) at the highest dose (Male ICR mice [2]): 7%(30); RT effect at the highest dose (change in rectal temperature) (Male ICR mice [3]): −2.2(30) °C; Ki (CB1 receptor; Ki (nM) CB1, means ± SEM): 144 ± 22 nM; fold decrease in CB1 affinity (CB1 receptor): 3 fold
CCCCCCC(C)(C)c1cc(OC)c(C2(O)CCCCCC2)c(OC)c1 [O-2091, 1-(4-(1,1-Dimethylheptyl)-2,6-dimephenyl)-cycloheptan-1-ol] | 50 | 64 ± 8 nM | 3200 ± 141 nM | fold increase in CB2 affinity (CB2 receptor; [6]): ~2 fold
CCCCCCC(C)(C)c1cc(OC)c(C2(O)CCCCC2)c(OC)c1 [O-2072] | 55 | 105 ± 19 nM | 5820 ± 662 nM | –
CCCCCCC(C)(C)c1cc(OC)c(C2CCOCC2)c(OC)c1 [O-1964, 4-(4-(1,1-Dimethylheptyl)-2,6-dimethoxy-phenyl)-tetrahydro-pyran] | – | 911 ± 116 nM | > 10000 nM | fold decrease in CB2 affinity (CB2 receptor; [6]): ~2 fold; T.F. % effect at dose (Male ICR mice [2]): 30% @ 30
CCCCCCc1ccc(O)c(C2CCCCC2)c1O [O-2010, 2-Cyclohexyl-4-hexyl resorcinol] | – | – | 9510 ± 332 nM | SA percent effect at the highest dose (Male ICR mice [1]): −18%(30); T.F. % effect at dose (Male ICR mice [2]): 9.0% @ 30; TF percent effect (% MPE) at the highest dose (Male ICR mice [2]): 9%(30); RT effect at the highest dose (change in rectal temperature) (Male ICR mice [3]): −0.4(30) °C; fold decrease in CB1 affinity (CB1 receptor): 865 fold
CCCCCCC(C)(C)c1cc(OC)c(C2(O)CCC3(CC2)OCCO3)c(OC)c1 [O-2092, 8-(4-(1,1-Dimethylheptyl)-2,6-dimphenyl)-1,4-dioxaspiro(4,5)decan-] | 36 | 126 ± 12 nM | 4580 ± 312 nM | –
CCCCCCC(C)(C)c1cc(OC)c(C2(O)CCC(O)CC2)c(OC)c1 (single isomer, unassigned) [O-2117B] | – | 1560 ± 70 nM | > 10000 nM | –
CCCCCCC(C)(C)c1cc(OC)c(C2(O)CC(C)CC(O)C2)c(OC)c1 (stereo not drawn) [O-2121] | 20 | 101 ± 14 nM | 1990 ± 77 nM | –
COc1cc(C)cc(OC)c1C1(O)CCCC(C)(C)C1 (stereo not drawn) [O-2139, 1-(2,6-Dimethyoxy-methyl-phenyl)-3,3-dimethyl-cyclo-hexanol] | – | > 10000 nM | > 10000 nM | –
CCCCCCC(C)(C)c1cc(OC)c(C2(O)CCCC(C)C2)c(OC)c1 (single isomer, unassigned; isomer 1) [O-1966A, 1-(4-(1,1-Dimethylheptyl-2,6-dimethoxy-phenyl)-3-methyl-cyclohexanol isomer 1] | 220 | 22.5 nM and 23 nM | 5060 ± 984 nM | CB2 selectivity (CB2 receptor): 225 fold; T.F. % effect at dose (Male ICR mice [2]): 5.1 @ 30%; R.T. effect at dose (Male ICR mice [3]): 0.5 @ 30 °C
CCCCCCC(C)(C)c1cc(OC)c(C2=CCOCC2)c(OC)c1 [O-1965, 4-(4-(1,1-Dimethylheptyl)-2,6-dimethoxy-phenyl)-3,6-dihydro-2H-pyran] | – | > 10000 nM | > 10000 nM | –
CCCCCCC(C)(C)c1cc(OCC)c(C2(O)CCCC(C)C2)c(OCC)c1 (stereo not drawn) [O-2090] | 10 | 858 ± 43 nM | 8810 ± 422 nM | –
CCCCCCC(C)(C)c1cc(OC)c(C2=CCC(=O)CC2)c(OC)c1 [O-2114, 4-(4-(1,1-O-methyl-heptyl)-2,6-dimethoxy-phenyl)-cyclohex-3-enone] | 5 | 1770 ± 184 nM | 8440 ± 954 nM | –
CCCCCCC(C)(C)c1cc(OC)c(C2(O)CCC(O)CC2)c(OC)c1 (single isomer, unassigned) [O-2116A] | 21 | 190 ± 17 nM | 3930 ± 483 nM | –
CCCCCCC(C)(C)c1cc(OC)c(C2(O)CCCC(C)(C)C2)c(OC)c1 (stereo not drawn) [O-2068] | 47 | 161 ± 24 nM | 7510 ± 721 nM | –

— patent publication US7179800B2 (priority 2002, dated 2007)
